Results taken from patent US8426338B2, “Chelating agents for micronutrient fertilisers” (Adelaide Research and Innovation Pty Ltd, priority 2005, dated 2013).

Key:
[1] = test system: Canola; experiment: Pot experiment: Zn fertiliser uptake by canola on alkaline and calcareous soils; assay type: in vivo, Canola (variety Pinnacle); conditions: 21 days growth, chelate rates PEI 0.043, EDTA 0.37 μM/g soil, FIG. 1
Description: A pot experiment was designed to test the availability of Zn to Canola when applied to calcareous and alkaline soils either as ZnSO4.7H2O or chelated with PEI or EDTA.
Soil samples were collected from field sites known to be Zn responsive at Streaky Bay, South Australia and Birchip, Victoria (Table 1). Topsoils from each location were collected, oven dried and passed through a 2 mm sieve. The ^65Zn labelled experimental fertilisers were mixed with 20 g of soil, which was banded between 100 g of the unfertilised bulk soil. Total nutrient application equated to (μg/g soil) P 60, N 27, applied as TGMAP, and Zn 0.2 as ZnSO4.7H2O. Chelate rates were based on the concentrations required to complex 100% of the Zn in the fertiliser solution. Rates varied depending on the stoichiometry of the Zn-ligand complexes. GEOCHEM was used to predict the degree of chelation in the EDTA fertiliser solution. […]
Two pre-germinated Canola seeds (variety Pinnacle) were transferred to each pot. […] Plant digests were analysed for ^65Zn by gamma spectroscopy and for total nutrient contents by ICP-OES.
Data for shoot dry weight, shoot nutrient concentrations and Zn fertiliser uptake were analysed by analysis of variance (ANOVA). Significance between means was determined using the Least Significant Difference (LSD) test.

[2] = test system: Canola seedlings; conditions: 1 μM ZnSO4; 24-hour uptake; FIG. 6, FIG. 7
Protocol: Canola seedlings (Brassica napus var. Pinnacle) were pre-germinated on filter paper moistened with deionised water. On day 6, the seedlings were transferred to complete nutrient solution and moved into the glasshouse. The nutrient solution contained Ca (3.55 mM), Mg (1.45 mM), NO3^− (8.1 mM), H2PO4^− (0.2 mM), Cl (10 μM), Na (1.1 mM), K (1.2 mM), SO4 (1.45 mM), H3BO3 (30 μM), MoO4^2− (0.2M), FeEDDHA (25 μM), Mn (10 μM), Zn (1 μM), Cu (1 μM), buffered at pH 6.0 with 2 mM MES (2-morpholinoethanesulphonic acid, 50% as potassium salt) (Kupper et al, 2000). After 14 days, the canola plants, three per pot, were transferred to pre-treatment solution for 24 hours. Pre-treatment solution contained 2 mM NaMES (pH 6.0) and 0.5 mM CaCl2. Following pre-treatment, the plants were used in the ^65Zn uptake experiments.
Pre-treated canola seedlings were transferred to uptake solutions containing 2 mM KMES (pH 6.0), 0.5 mM CaCl2 and 1 μM ZnSO4 as either the metal salt or chelated with EDTA (control) or the eight forms of PEI described above. […]
After a 24-hour uptake period, canola shoots were harvested, weighed and digested in concentrated HNO3 at 140° C. Digest solutions were transferred to radioactivity counting vials for ^65Zn measurement by gamma spectroscopy. […]

[3] = test system: canola roots; experiment: Uptake of 65Zn from ice-cold solutions into canola roots (apoplast and symplast); assay type: in vivo; conditions: 30 minutes, FIG. 4
Protocol: Each treatment was replicated in triplicate. After 30 minutes the canola roots were removed from the uptake solutions and rinsed with MilliQ water. Those roots used to measure symplastic absorption of Zn were transferred to ice-cold desorption solutions for 30 minutes in order to desorb apoplastically bound Zn. Desorption solutions contained 2 mM Na-MES (pH 6.0), 5 mM CaCl2 and 60 μM ZnCl2. Canola plants were separated into roots and shoots, blotted dry and weighed. Roots were transferred into radioactivity counting vials, to which 4 ml of 5M HNO3 was added. Samples were left overnight to solubilise the cell contents before the ^65Zn contents of roots were determined by gamma spectroscopy.

O=C(O)CN(CCN(CC(=O)O)CC(=O)O)CC(=O)O [EDTA, ethylenediaminetetraacetic acid]
Total Zn uptake by canola ([1]; Birchip Sodosol): ineffective | Total Zn uptake by canola ([1]; Streaky Bay calcareous grey sandy loam): ineffective | Zn absorption and translocation to canola shoots (Zn transfer coefficient) [2]: not readily absorbed and translocated to canola shoots | Uptake of Zn into the root symplast ([3]; 10 μM ZnCl2 chelated by 10 μM EDTA or 5 μM PEI): not readily absorbed | Uptake of Zn into the root apoplast ([3]; 10 μM ZnCl2 chelated by 10 μM EDTA): not readily absorbed
